Test results taken from US20110136792A1, “NOVEL CARBOXYLIC ACID ANALOGS AS GLYCOGEN SYNTHASE ACTIVATORS” (priority 2009, published 2011).

Tested on: glycogen synthase
Assay: Glycogen Synthase (GS) Assay
Format: biochemical
Conditions: coupled pyruvate kinase/lactate dehydrogenase assay, absorbance at 340 nm; for EC50: compound concentration needed to give 50% maximum activation; for GS SC200: compound concentration needed to stimulate 200% of the enzyme activity
Protocol: The following tests were carried out in order to determine the activity of the compounds of formula (I).
Twelve μL per well of substrate solution containing glycogen (4.32 mg/ml), 2.67 mM UDP-glucose, 21.6 mM phospho(enol)pyruvate and 2.7 mM NADH in 30 mM glycylglycine, pH 7.3 buffer was added into a polystyrene 384-well assay plate (BD Biosciences).
Compound solutions (8 μL/well) at various concentrations (0-300 μM) were added to the assay plate (columns 5-24). Compound solution contains 30 mM glycylglycine, pH 7.3, 40 mM KCl, 20 mM MgCl2, 9.2% DMSO, with (columns 15-24) or without (columns 5-14) 20 mM glucose 6-phosphate.
Enzyme solution (12 μL/well) containing glycogen synthase (16.88 μg/ml), pyruvate kinase (0.27 mg/ml), lactate dehydrogenase (0.27 mg/ml) in 50 mM Tris-HCl, pH 8.0, 27 mM DTT and bovine serum albumin (BSA, 0.2 mg/ml) was added to the assay plate (columns 3-24). As a blank control, enzyme solution without glycogen synthase was added into the top half wells of columns 1-2. To the bottom half wells of columns 1-2 were added a known activator, glucose 6-phosphate (at final concentration 5 mM) in addition to the enzyme solution. The reaction mixture was incubated at room temperature. The assay plate was then read for absorbance at 340 nm on an Envision reader every 3 minutes up to a total of 15 minutes.
The enzyme activity (with or without compound) was calculated by the reaction rate and represented by the optical density change (δOD) per minute. Percent stimulation of glycogen synthase activity by a compound at various concentrations was calculated by the following formula: […]
Where Rs is the reaction rate of the enzyme in the presence of compound and Rt is the reaction rate of the enzyme in the absence of compound.
SC200 is defined as the compound concentration that is needed to stimulate 200% of the enzyme activity. EC50 is defined as the compound concentration that is needed to give 50% maximum activation.
Compounds from Examples 1 through Example 64 were assayed according to assay procedures described above and the result is listed in Table 1 below: […]

SMILES | EC50 | GS SC200
Cn1ccnc1C(=O)N(CC(=O)O)Cc1cccc(COc2ccc(-c3ccc(F)cc3F)cc2)c1 [Example 14, [[3-(2′,4′-Difluoro-biphenyl-4-yloxymethyl)-benzyl]-(1-methyl-imidazole-2-carbonyl)-amino]-acetic acid] | 1310 nM | 0.15 µM
COc1cc(F)c(F)cc1-c1ccc(OCc2cccc(CN(CC(=O)O)C(=O)C3CCN(C)CC3)c2)cc1 [Example 32, [[3-(4′,5′-Difluoro-2′-methoxy-biphenyl-4-yloxymethyl)-benzyl]-(1-methyl-piperidine-4-carbonyl)-amino]-acetic acid] | 610 nM | 0.07 µM
COc1cc(F)c(F)cc1-c1ccc(OCc2cncc(CN3C(C(=O)O)CCS3(=O)=O)c2)cc1 (stereo not shown) [Example 63, 2-[5-(4′,5′-Difluoro-2′-methoxy-biphenyl-4-yloxymethyl)-pyridin-3-ylmethyl]-1,1-dioxo-1lambda*6*-isothiazolidine-3-carboxylic acid] | 550 nM | 0.01 µM
COc1cc(F)c(F)cc1-c1ccc(OCc2cccc(CN(CC(=O)O)C(=O)C(C)(C)C)c2)cc1 [Example 1, [[3-(4′,5′-Difluoro-2′-methoxy-biphenyl-4-yloxymethyl)-benzyl]-(2,2-dimethyl-propionyl)-amino]-acetic acid] | 1340 nM | 0.21 µM
O=C(O)CN(Cc1cccc(COc2ccc(-c3ccc(F)cc3F)cc2)c1)C(=O)C1CC1 [Example 12, {Cyclopropanecarbonyl-[3-(2′,4′-difluoro-biphenyl-4-yloxymethyl)-benzyl]-amino}-acetic acid] | 4310 nM | 0.75 µM
Cc1cc(F)c(F)cc1-c1ccc(OCc2cccc(CN3[C@@H](C(=O)O)CCS3(=O)=O)c2)cc1 [Example 49, (R)-2-[3-(4′,5′-Difluoro-2′-methyl-biphenyl-4-yloxymethyl)-benzyl]-1,1-dioxo-1lambda*6*-isothiazolidine-3-carboxylic acid] | 890 nM | 0.35 µM

Stronger by EC50, values ahead:

EC50 | SMILES | GS SC200
190 nM | COc1cc(F)c(F)cc1-c1ccc(OCc2cccc(CN3C(C(=O)O)CCS3(=O)=O)c2)cc1 (racemic) [Example 43, 2-[3-(4′,5′-Difluoro-2′-methoxy-biphenyl-4-yloxymethyl)-benzyl]-1,1-dioxo-1lambda*6*-isothiazolidine-3-carboxylic acid] | 0.03 µM
350 nM | COc1cc(F)c(F)cc1-c1ccc(OCc2cccc(CN(CC(=O)O)C(=O)[C@H]3CCCO3)c2)cc1 [Example 33, [[3-(4′,5′-Difluoro-2′-methoxy-biphenyl-4-yloxymethyl)-benzyl]-((R)-tetrahydro-furan-2-carbonyl)-amino]-acetic acid] | 0.02 µM
120 nM | COc1cc(F)c(F)cc1-c1ccc(OCc2cccc(CN3C(=O)CC[C@H]3C(=O)O)c2)cc1 [Example 52, (S)-1-[3-(4′,5′-Difluoro-2′-methoxy-biphenyl-4-yloxymethyl)-benzyl]-5-oxo-pyrrolidine-2-carboxylic acid] | 0.02 µM
450 nM | COCCC(=O)N(CC(=O)O)Cc1cccc(COc2ccc(-c3cc(F)c(F)cc3OC)cc2)c1 [Example 26, [[3-(4′,5′-Difluoro-2′-methoxy-biphenyl-4-yloxymethyl)-benzyl]-(3-methoxy-propionyl)-amino]-acetic acid] | 0.05 µM
100 nM | O=C(O)[C@@H]1CCS(=O)(=O)N1Cc1cccc(COc2ccc(-c3cc(F)c(F)cc3Cl)cc2)c1 [Example 51, (S)-2-[3-(2′-Chloro-4′,5′-difluoro-biphenyl-4-yloxymethyl)-benzyl]-1,1-dioxo-1lambda*6*-isothiazolidine-3-carboxylic acid] | 0.03 µM
